According to ChEMBL document CHEMBL4619799, “Mechanistic Insight into Antiretroviral Potency of 2'-Deoxy-2'-β-fluoro-4'-azidocytidine (FNC) with a Long-Lasting Effect on HIV-1 Prevention” (J Med Chem, 2020):
Active and inactive are the calls of the source. The calls are words filed in the database; no cut-off is given here.

Tests used:
[1] = Tmax in monkey plasma at 1 mg/kg, po administered as single dose by LC-MS/MS analysis; type: ADME, organism-based, Macaca mulatta; details: rhesus monkey
[2] = test system: Human immunodeficiency virus 1; test: Antiviral activity against JRFL pseudotyped HIV1 infected in human Hut/CCR5 cells assessed as time needed to reach 50% reduction of virus infection at 10 nM incubated with cells for 4 hrs prior to compound washout followed by viral infection and measured after 72 hrs by luciferase reporter gene assay; type: functional
[3] = Cmax in monkey plasma at 1 mg/kg, po administered as single dose by LC-MS/MS analysis; type: ADME, organism-based, Macaca mulatta; design: dose 1 mg/kg, route oral; details: rhesus monkey
[4] = Tmax in monkey PBMC assessed as FNC-TP level at 1 mg/kg, po administered as single dose by LC-MS/MS analysis; type: ADME, organism-based, Macaca mulatta; details: rhesus monkey, in vivo
[5] = Binding affinity to HIV1 Vif and CBFbeta-ELOB-ELOC complex (unknown origin) assessed as compound-complex adduct formation measured after 150 secs by CM5 chip based assay
[6] = test system: Human immunodeficiency virus 1; test: Antiviral activity against HIV1 infected patient assessed as […] in CD4-positive T cell count at 4 mg administered daily for 7 days measured 24 hrs post-last dose by immunostaining based flow cytometry analysis; type: functional, organism-based
[7] = Cytotoxicity against HEK293 cells assessed as cell viability by MTT assay; type: cell-based; details: human
[8] = Tmax in Sprague-Dawley rat thymus at 0.5 mg/kg, po administered as single dose via gavage by LC-MS/MS analysis; type: ADME, organism-based
[9] = AUC (0 to 24 hrs) in monkey PBMC assessed as FNC-TP level at 6 mg/kg, po administered as single dose by LC-MS/MS analysis; type: ADME, organism-based, Macaca mulatta; design: dose 6 mg/kg, time < 24 hr, route oral; details: rhesus monkey, in vivo
[10] = molecular target: Virion infectivity factor (Human immunodeficiency virus type 1 group M subtype B (isolate NY5)(HIV-1)) (UniProt P12504); test: Inhibition of HIV1 HA-tagged Vif expressed in HEK293T cells co-expressing Myc-tagged pcDNA-APOBEC3G and pcDNA-ubiquitin-His assessed as reduction in Vif-mediated A3G polyubiquitination at 3.5 to 35 nM measured after 48 hrs by Western blot analysis; type: cell-based; details: Human immunodeficiency virus 1, HEK-293T
Sequence of Virion infectivity factor (Human immunodeficiency virus type 1 group M subtype B (isolate NY5)(HIV-1)) (P12504 whole entry): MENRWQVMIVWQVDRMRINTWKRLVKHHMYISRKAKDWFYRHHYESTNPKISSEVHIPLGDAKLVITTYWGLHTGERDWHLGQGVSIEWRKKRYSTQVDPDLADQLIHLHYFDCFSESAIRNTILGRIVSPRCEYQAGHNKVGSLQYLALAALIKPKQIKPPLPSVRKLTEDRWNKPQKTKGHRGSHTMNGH

[11] = AUC (0 to 24 hrs) in monkey plasma at 1 mg/kg, po administered as single dose by LC-MS/MS analysis; type: ADME, organism-based, Macaca mulatta; design: time < 24 hr, dose 1 mg/kg, route oral; details: rhesus monkey
[12] = Drug metabolism in human PBMC-derived CD14-positive monocytes assessed as FNC-TP formation at 350 nM measured after 4 hrs by LC-MS/MS analysis; type: ADME; details: 0.35 µM
[13] = Effect on CD69 surface expression in IL2-induced human PBMC-derived CD14-positive monocytes at 100 nM measured after 48 hrs by immunostaining based flow cytometry; type: ADME; details: 0.1 µM
[14] = Cmax in monkey PBMC assessed as FNC-TP level at 1 mg/kg, po administered as single dose by LC-MS/MS analysis; type: ADME, organism-based, Macaca mulatta; design: dose 1 mg/kg, route oral; details: rhesus monkey, in vivo
[15] = Effect on CD25 surface expression in IL2-induced human PBMC-derived CD14-positive monocytes at 100 nM measured after 48 hrs by immunostaining based flow cytometry; type: ADME; details: 0.1 µM
[16] = test system: Homo sapiens; test: In vivo inhibition of Vif-induced A3G degradation in HIV1 infected patient assessed as increase in A3G expression in CD4-positive T cells at 4 mg administered daily for 7 days measured 24 hrs post-last dose by Western blot analysis; type: functional, organism-based
[17] = molecular target: Virion infectivity factor (Human immunodeficiency virus type 1 group M subtype B (isolate NY5)(HIV-1)) (UniProt P12504); test: Inhibition of HIV1 HA-tagged Vif expressed in HEK293T cells co-expressing Myc-tagged pcDNA-APOBEC3G assessed as reduction in Vif-mediated A3G degradation at 10 nM measured after 48 hrs by Western blot analysis; type: cell-based; details: Human immunodeficiency virus 1, HEK-293T
[18] = Tmax in monkey PBMC assessed as FNC-TP level at 6 mg/kg, po administered as single dose by LC-MS/MS analysis; type: ADME, organism-based, Macaca mulatta; details: rhesus monkey, in vivo
[19] = Cmax in monkey plasma at 6 mg/kg, po administered as single dose measured after 24 hrs by LC-MS/MS analysis; type: ADME, organism-based, Macaca mulatta; design: dose 6 mg/kg, route oral; details: rhesus monkey
[20] = Cytotoxicity against human Hut/CCR5 cells assessed as reduction in cell viability measured after 72 hrs by MTT assay; type: cell-based
[21] = test system: Human immunodeficiency virus 1; test: Synergistic antiviral activity against JRFL pseudotyped HIV1 infected in human Hut/CCR5 cells assessed as combination index in presence of dolutegravir by luciferase reporter gene based assay; type: functional
[22] = test system: Human immunodeficiency virus 1; test: Potency index, ratio of lamivudine EC50 to test compound EC50 for antiviral activity against VSVG pseudotyped HIV1 infected in HEK293 cells; type: functional
[23] = test system: Human immunodeficiency virus 1; test: Antiviral activity against VSVG pseudotyped HIV1 infected in HEK293 cells preincubated for 3 hrs followed by compound washout and subsequent compound redosing and measured after 72 hrs by luciferase reporter gene based assay; type: functional, organism-based; details: Human immunodeficiency virus 1, HEK293
[24] = Elimination half life in monkey PBMC assessed as FNC-TP level at 1 mg/kg, po administered as single dose by LC-MS/MS analysis; type: ADME, organism-based, Macaca mulatta; details: rhesus monkey, in vivo
[25] = molecular target: Virion infectivity factor (Human immunodeficiency virus type 1 group M subtype B (isolate NY5)(HIV-1)) (UniProt P12504); test: Inhibition of HIV1 HA-tagged Vif expressed in HEK293T cells co-expressing eGFP-tagged pcDNA-APOBEC3G assessed as reduction in Vif-mediated A3G degradation at 10 nM measured after 48 hrs by flow cytometry; type: cell-based; details: Human immunodeficiency virus 1, HEK-293T
[26] = Effect on CD25 surface expression in IL2-induced human PBMC-derived CD4-positive T cells at 100 nM measured after 48 hrs by immunostaining based flow cytometry; type: ADME; details: 0.1 µM
[27] = AUC (0 to 24 hrs) in monkey PBMC assessed as FNC-TP level at 1 mg/kg, po administered as single dose by LC-MS/MS analysis; type: ADME, organism-based, Macaca mulatta; design: time < 24 hr, dose 1 mg/kg, route oral; details: rhesus monkey, in vivo
[28] = Selectivity index, ratio of CC50 for human Hut/CCR5 cells to EC50 for antiviral activity against JRFL pseudotyped HIV1 infected in human Hut/CCR5 cells; type: toxicity, cell-based; details: read-out: Ratio CC50/EC50
[29] = Binding affinity to HIV1 Vif and CBFbeta-ELOB-ELOC complex (unknown origin) by CM5 chip based assay
[30] = Cmax in monkey PBMC assessed as FNC-TP level at 6 mg/kg, po administered as single dose by LC-MS/MS analysis; type: ADME, organism-based, Macaca mulatta; design: dose 6 mg/kg, route oral; details: rhesus monkey, in vivo
[31] = Elimination half life in monkey PBMC assessed as FNC-TP level at 6 mg/kg, po administered as single dose by LC-MS/MS analysis; type: ADME, organism-based, Macaca mulatta; details: rhesus monkey, in vivo
[32] = Cmax in monkey plasma at 6 mg/kg, po administered as single dose by LC-MS/MS analysis; type: ADME, organism-based, Macaca mulatta; design: dose 6 mg/kg, route oral; details: rhesus monkey
[33] = Drug metabolism in human PBMC-derived CD4-positive T cells assessed as FNC-TP formation at 350 nM measured after 4 hrs by LC-MS/MS analysis; type: ADME; details: 0.35 µM
[34] = test system: Human immunodeficiency virus 1; test: Antiviral activity against JRFL pseudotyped HIV1 infected in human Hut/CCR5 cells preincubated for 3 hrs followed by compound washout and subsequent compound redosing and measured after 72 hrs by luciferase reporter gene based assay; type: functional, organism-based; details: Human immunodeficiency virus 1, Hut/CCR5
[35] = Effect on HLA-DR surface expression in IL2-induced human PBMC-derived CD4-positive T cells at 100 nM measured after 48 hrs by immunostaining based flow cytometry; type: ADME; details: 0.1 µM
[36] = Effect on HLA-DR surface expression in IL2-induced human PBMC-derived CD14-positive monocytes at 100 nM measured after 48 hrs by immunostaining based flow cytometry; type: ADME; details: 0.1 µM

For `[N-]=[N+]=N[C@]1(CO)O[C@@H](n2ccc(N)nc2=O)[C@@H](F)[C@@H]1O` [RO-0622], the Tmax [1] was 1 h, the Time [2] was 123.06 to 123.1 h and the Cmax [3] was 196 nM. For the same molecule, the Tmax [4] was 6 h, the Activity [5] was 36% and the Activity [6] was “inactive”. For the same molecule, the CC50 [7] was ≥ 25000 nM, the Tmax [8] was 7 to 12 h and the AUC [9] was 0.24922 µM·h. For the same molecule, the inhibition [10] was “Active”, the AUC(0-t) at 24 h [11] was 0.499 µM·h and the Drug metabolism [12] was “Metabolite_Detected”. The Activity [13] was “Non-Toxic”, the Cmax [14] was 2.1 nM and the Activity [15] was “Non-Toxic”. The inhibition [16] was “Active”, the inhibition [17] was “Active” and the Tmax [18] was 6 h. The Cmax [19] was 6.5 nM, the CC50 at 72 h [20] was 340 nM and the CI50 [21] was 0.01704. For the same molecule, the CI75 [21] was 0.01929, the CI90 [21] was 0.02209 and the CI95 [21] was 0.0244. For the same molecule, the “Ratio EC50” value [22] was 4700, the EC50 [23] was 0.063 nM and the “beta t1/2” value [24] was 133.15 h. The inhibition [25] was “Active”, the Activity [26] was “Non-Toxic” and the AUC [27] was 0.09933 µM·h. For the same molecule, the selectivity ratio [28] was 25000, the Kd [29] was 87 nM and the Cmax [30] was 4.07 nM. For the same molecule, the “beta t1/2” value [31] was 112.4 h, the Cmax [32] was 2070 nM and the Drug metabolism [33] was “Metabolite_Detected”. For the same molecule, the EC50 [34] was 0.0136 nM, the Activity [35] was “Non-Toxic” and the Activity [36] was “Non-Toxic”.
